From article PMC10902378, “Effective engineering of a ketoreductase for the biocatalytic synthesis of an ipatasertib precursor” (Communications Chemistry, 2024)
Substitutions are numbered along the chain they refer to. Names may count otherwise.

Assays:
Ssal-KRED [1] = molecular target: T1, Ssal-KRED (Sporobolomyces salmonicolor, UniProt Q9UUN9, F97W/A238K/L241M/M242W/Q245S/L316M/T342M); assay: UV assay at […] nm, Michaelis-Menten fit; assay type: biochemical; settings: apparent; NADP+/iPrOH as hydride donor; purified His-tagged enzyme; read-out: app. KM
T1 construct: N-terminal 6xHis-tag, pET28b(+), purified; recombinant from E. coli
T1 sequence (Q9UUN9 2-343 F97W/A238K/L241M/M242W/Q245S/L316M/T342M): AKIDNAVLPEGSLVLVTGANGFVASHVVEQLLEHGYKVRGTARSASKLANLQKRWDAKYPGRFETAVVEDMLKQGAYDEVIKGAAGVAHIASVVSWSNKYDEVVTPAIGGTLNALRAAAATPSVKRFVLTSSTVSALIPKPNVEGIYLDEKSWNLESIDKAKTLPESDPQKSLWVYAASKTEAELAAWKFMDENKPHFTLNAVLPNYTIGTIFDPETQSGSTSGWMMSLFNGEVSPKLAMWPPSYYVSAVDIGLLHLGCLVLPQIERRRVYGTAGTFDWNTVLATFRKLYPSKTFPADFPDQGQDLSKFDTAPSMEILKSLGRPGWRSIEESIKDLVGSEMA

Ssal-KRED [2] = molecular target: T2, Ssal-KRED (Sporobolomyces salmonicolor, UniProt Q9UUN9, F97W/T134V/S224A/A238K/L241M/M242W/Q245S/Y246G/L316M/T342M); assay: UV assay at […] nm, Michaelis-Menten fit; assay type: biochemical; settings: apparent; NADP+/iPrOH as hydride donor; purified His-tagged enzyme; read-out: app. KM
T2 construct: N-terminal 6xHis-tag, pET28b(+), purified; recombinant from E. coli
T2 sequence (Q9UUN9 2-343 F97W/T134V/S224A/A238K/L241M/M242W/Q245S/Y246G/L316M/T342M): T1 sequence (Q9UUN9 2-343 F97W/A238K/L241M/M242W/Q245S/L316M/T342M) with T133V, S223A, Y245G

Ssal-KRED [3] = molecular target: T3, Ssal-KRED (Sporobolomyces salmonicolor, UniProt Q9UUN9, F97W/L241M/M242W/Q245S/L316M/T342M); assay: UV assay at […] nm, Michaelis-Menten fit; assay type: biochemical; settings: apparent; NADP+/iPrOH as hydride donor; purified His-tagged enzyme; read-out: app. KM
T3 construct: N-terminal 6xHis-tag, pET28b(+), purified; recombinant from E. coli
T3 sequence (Q9UUN9 2-343 F97W/L241M/M242W/Q245S/L316M/T342M): T1 sequence (Q9UUN9 2-343 F97W/A238K/L241M/M242W/Q245S/L316M/T342M) with K237A

Ssal-KRED [4] = molecular target: T4, Ssal-KRED (Sporobolomyces salmonicolor, UniProt Q9UUN9, F97W/S224A/A238K/L241M/M242W/Q245S/Y246G/L316M/T342M); assay: UV assay at […] nm, Michaelis-Menten fit; assay type: biochemical; settings: apparent; NADP+/iPrOH as hydride donor; purified His-tagged enzyme; read-out: app. KM
T4 construct: N-terminal 6xHis-tag, pET28b(+), purified; recombinant from E. coli
T4 sequence (Q9UUN9 2-343 F97W/S224A/A238K/L241M/M242W/Q245S/Y246G/L316M/T342M): T1 sequence (Q9UUN9 2-343 F97W/A238K/L241M/M242W/Q245S/L316M/T342M) with S223A, Y245G

Ssal-KRED [5] = molecular target: T5, Ssal-KRED (Sporobolomyces salmonicolor, UniProt Q9UUN9); assay: UV assay at […] nm, Michaelis-Menten fit; assay type: biochemical; settings: apparent; NADP+/iPrOH as hydride donor; purified His-tagged enzyme; read-out: app. KM
T5 construct: N-terminal 6xHis-tag, pET28b(+), purified; recombinant from E. coli
T5 sequence (Q9UUN9 2-343): T1 sequence (Q9UUN9 2-343 F97W/A238K/L241M/M242W/Q245S/L316M/T342M) with W96F, K237A, M240L, W241M, S244Q, M315L, M341T

Ssal-KRED [6] = molecular target: T6, Ssal-KRED (Sporobolomyces salmonicolor, UniProt Q9UUN9, F97W/L241M/M242W/Q245S); assay: UV assay at […] nm, Michaelis-Menten fit; assay type: biochemical; settings: apparent; NADP+/iPrOH as hydride donor; purified His-tagged enzyme; read-out: app. KM
T6 construct: N-terminal 6xHis-tag, pET28b(+), purified; recombinant from E. coli
T6 sequence (Q9UUN9 2-343 F97W/L241M/M242W/Q245S): T1 sequence (Q9UUN9 2-343 F97W/A238K/L241M/M242W/Q245S/L316M/T342M) with K237A, M315L, M341T

purified protein = substrate: C[C@@H]1CC(=O)c2ncnc(N3CCN(C(=O)OC(C)(C)C)CC3)c21; assay: purified protein; assay type: biochemical, Sporobolomyces salmonicolor; settings: apparent; NADP+/iPrOH as hydride donor; purified His-tagged enzyme; substrate saturation was not reached

Work on `C[C@@H]1CC(=O)c2ncnc(N3CCN(C(=O)OC(C)(C)C)CC3)c21` [1a, ketone 1a] yielded a Km (Ssal-KRED [1]) of 300 ± 7.9 µM, a Km (Ssal-KRED [2]) of 144 ± 5.5 µM and a Km (Ssal-KRED [3]) of 175 ± 9.9 µM. It also gave a Km (Ssal-KRED [4]) of 472 ± 34.6 µM, a Km (Ssal-KRED [5]) of 11.9 ± 1.1 µM and a Km (Ssal-KRED [6]) of 163 ± 7.8 µM.

B1: Ssal-KRED (Sporobolomyces salmonicolor; A238K/F97W/L241M/L316M/M242W/Q245S/T342M/Y246G) (protein)
chain: T1 sequence (Q9UUN9 2-343 F97W/A238K/L241M/M242W/Q245S/L316M/T342M) with Y245G
notes: N-terminal 6xHis-tag, pET28b(+), purified; recombinant from E. coli
B1 showed a Km (purified protein) of 1668 ± 103 µM, a kcat (purified protein) of 0.763 ± 0.04 s⁻¹ and a kcat/Km (purified protein) of 458 M⁻¹ s⁻¹.
